# Results from patent US12172993B2 (priority 2018, dated 2024).
# Where two headings read alike, the source gives them in different places.
# Key:
# [1] = biological target: SRC (GST-HIS-tag) (Homo sapiens (Human), UniProt P12931); type: biochemical
# [2] = system: M579-A2-luc; type: cell-based
# [3] = biological target: ABL1 wt (Homo sapiens (Human), UniProt P00519); type: biochemical
# [4] = biological target: SIK1 (Homo sapiens (Human), UniProt P57059); type: biochemical
# [5] = biological target: SIK2 (Homo sapiens (Human), UniProt Q9H0K1); type: biochemical
# [6] = physchem; type: physicochemical
# [7] = human, microsomes
# [8] = mouse, microsomes
# [9] = system: human plasma-proteins
# [10] = system: murine plasma-proteins
# [11] = in vitro; conditions: human, microsomes
# [12] = in vitro; conditions: mouse, microsomes
# [13] = humans; prescribing information; cited from earlier work
# [14] = biological target: T1, SIK3 (Homo sapiens (Human), UniProt Q9Y2K2)
# [15] = in vivo; conditions: male, CD1, mouse, plasma
# [16] = in vitro; conditions: dog, MDCK
# [17] = system: MDR1; test: in vitro; conditions: dog, MDCK-MDR1
# [18] = in vivo; conditions: CD1, mouse, plasma, oral, 30 mg/kg; read-out: Free concentration (nM) at timepoint after 30 mg/kg po
# [19] = system: MC38 cells; test: cells; conditions: Mus musculus, MC-38, 72 h, read-out: MC38 IC50 (nM at 100 ng/mL TNF)
# [20] = biological target: T1, SIK3; test: biochemical
# [21] = system: NFKB activity; conditions: PANC-1 reporter cells, 10 ng/ml rHuTNF
# [22] = system: HDAC4 phosphorylation; conditions: PANC-1 cells, 10 ng/mL rHuTNF, 3 h
# ABL1 wt, sequence (P00519 118-535 limits assumed): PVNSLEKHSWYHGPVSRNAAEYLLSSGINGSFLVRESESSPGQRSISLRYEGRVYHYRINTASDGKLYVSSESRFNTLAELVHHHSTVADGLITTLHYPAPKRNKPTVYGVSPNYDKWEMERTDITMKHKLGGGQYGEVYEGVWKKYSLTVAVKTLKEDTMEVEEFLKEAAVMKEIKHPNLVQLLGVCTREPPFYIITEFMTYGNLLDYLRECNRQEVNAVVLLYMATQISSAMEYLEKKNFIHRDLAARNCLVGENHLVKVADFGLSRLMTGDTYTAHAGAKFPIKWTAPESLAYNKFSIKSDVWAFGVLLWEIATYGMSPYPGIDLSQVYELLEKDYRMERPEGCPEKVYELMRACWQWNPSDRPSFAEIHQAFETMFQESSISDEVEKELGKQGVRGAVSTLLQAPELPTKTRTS
compound,measurement,setting,value
"Cc1nc(NCCO)cc(Nc2ncc(C(=O)Nc3c(Cl)ccnc3C)s2)n1 [Compound C11, N-(4-chloro-2-methylpyridin-3-yl)-2-((6-((2-hydroxyethyl)amino)-2-methylpyrimidin-4-yl)amino)thiazole-5-carboxamide]",IC50,[1],< 1.5 nM
"CCOc1cccc(Cl)c1NC(=O)c1cnc(Nc2cc(N3CCN(CCO)CC3)nc(C)n2)s1 [Compound B8, N-(2-chloro-6-ethoxyphenyl)-2-((6-(4-(2-hydroxyethyl)piperazin-l-yl)-2-methylpyrimidin-4-yl)amino)thiazole-5-carboxamide]",cytotoxicity in the presence of TNF (10 ng/mL) compared to inhibitor alone,[2],fails to exhibit cytotoxicity
"Cc1nc(Nc2ncc(C(=O)Nc3ncccc3C)s2)cc(N2CCN(CCO)CC2)n1 [Compound C2, 2-((6-(4-(2-hydroxyethyl)piperazin-1-yl)-2-methylpyrimidin-4-yl)amino)-N-(3-methylpyridin-2-yl)thiazole-5-carboxamide]",IC50,[3],14.4 nM
same,IC50,[1],< 1.5 nM
same,IC50,[4],177 nM
same,IC50,[5],427 nM
same,solubility kinetic,[6],160 µM
same,solubility kinetic,[6]; kinetic from dmso stock,128 to 195 µM
same,Intrinsic clearance (L/min/mg),[7],< 17 µL/min/mg
same,% Remaining at 40 min (%),[7],69%
same,Intrinsic clearance (L/min/mg),[8],35 µL/min/mg
same,% Remaining at 40 min (%),[8],48%
same,Percentage unbound (%),[9],9%
same,Percentage unbound (%),[10],30%
same,half-life,[11],> 86 min
same,half-life,[12],40 min
Cc1cn(-c2cc(NC(=O)c3ccc(C)c(Nc4nccc(-c5cccnc5)n4)c3)cc(C(F)(F)F)c2)cn1 [nilotinib],terminal / elimination half-life,[13],approximately 17 hours
Cc1nc(Nc2ncc(C(=O)Nc3c(C)noc3C)s2)cc(N2CCN(CCO)CC2)n1 [Compound C9],IC50,[3],27.4 nM
same,IC50,[1],6.44 nM
same,IC50,[4],169 nM
same,IC50,[5],232 nM
same,solubility kinetic,[6],174 µM
same,solubility kinetic,[6]; kinetic from dmso stock,128 to 195 µM
same,IC50,[14],800 nM
same,Intrinsic clearance (L/min/mg),[7],< 14 µL/min/mg
same,% Remaining at 40 min (%),[7],89%
same,Intrinsic clearance (L/min/mg),[8],< 14 µL/min/mg
same,% Remaining at 40 min (%),[8],83%
same,Percentage unbound (%),[9],6%
same,Percentage unbound (%),[10],44%
same,half-life,[11],> 100 min
same,half-life,[12],> 100 min
"Cc1nc(Nc2ncc(C(=O)Nc3cccnc3C)s2)cc(N2CCN(CCO)CC2)n1 [Compound C6, 2-((6-(4-(2-hydroxyethyl)piperazin-1-yl)-2-methylpyrimidin-4-yl)amino)-N-(2-methylpyridin-3-yl)thiazole-5-carboxamide]",IC50,[1],< 1.5 nM
"Cc1nc(Nc2ncc(C(=O)Nc3c(C)ccnc3C)s2)cc(N2CCN(CCO)CC2)n1 [Compound C1, N-(2,4-dimethylpyridin-3-yl)-2-((6-(4-(2-hydroxyethyl)piperazin-1-yl)-2-methylpyrimidin-4-yl)amino)thiazole-5-carboxamide]",IC50,[1],< 1.5 nM
"Cc1nc(Nc2ncc(C(=O)Nc3c(Cl)ccnc3C)s2)cc(N2CCN(CCO)CC2)n1 [Compound B3, N-(4-chloro-2-methylpyridin-3-yl)-2-((6-(4-(2-hydroxyethyl)piperazin-1-yl)-2-methylpyrimidin-4-yl)amino)thiazole-5-carboxamide]",solubility kinetic,[6],82 µM
same,solubility kinetic,[6]; kinetic from dmso stock,82 µM
same,Intrinsic clearance (L/min/mg),[7],24 µL/min/mg
same,half-life,[7],58 min
same,% Remaining at 40 min (%),[7],60%
same,Percentage unbound (%),[9],7%
same,Percentage unbound (%),[10],11%
same,AUC(0-inf),"[15]; iv, 1 mg/kg",0.45 µM·h
same,AUC(0-t),"[15]; iv, 1 mg/kg",0.437 µM·h
same,Cmax,"[15]; iv, 1 mg/kg",1230 nM
same,MRT inf,"[15]; iv, 1 mg/kg",17.4 min
same,MRT last,"[15]; iv, 1 mg/kg",15 min
same,Tmax,"[15]; iv, 1 mg/kg",4.98 min
same,Vd,"[15]; iv, 1 mg/kg",1.31 L/kg
same,clearance,"[15]; iv, 1 mg/kg",75 mL/min/kg
same,AUC(0-inf),"[15]; po, 30 mg/kg",0.687 µM·h
same,AUC(0-t),"[15]; po, 30 mg/kg",0.589 µM·h
same,Cmax,"[15]; po, 30 mg/kg",202 nM
same,Tmax,"[15]; po, 30 mg/kg",30 min
same,bioavailability,"[15]; po, 30 mg/kg",4%
same,Papp,[16],20 ×10⁻⁶ cm/s
same,Papp,[17],20 ×10⁻⁶ cm/s
"Cc1nc(Nc2ncc(C(=O)Nc3c(Cl)csc3C)s2)cc(N2CCN(CCO)CC2)n1 [Compound D1, N-(4-chloro-2-methylthiophen-3-yl)-2-((6-(4-(2-hydroxyethyl)piperazin-1-y1)-2-methylpyrimidin-4-yl)amino)thiazole-5-carboxamidexs]",concentration at 2 h,[18],80 nM
same,concentration at 6 h,[18],4 nM
same,concentration at 12 h,[18],2.14 nM
same,IC50,[19],< 200 nM
same,IC50,[20],40 to 45 nM
"Cc1nc(Nc2ncc(C(=O)Nc3c(C)cncc3Cl)s2)cc(N2CCN(CCO)CC2)n1 [Compound C4, N-(3-chloro-5-methylpyridin-4-yl)-2-((6-(4-(2-hydroxyethyl)piperazin-1-yl)-2-methylpyrimidin-4-yl)amino)thiazole-5-carboxamide]",IC50,[1],< 1.5 nM
same,solubility kinetic,[6]; kinetic from dmso stock,128 µM
same,Intrinsic clearance (L/min/mg),[7],115 µL/min/mg
same,% Remaining at 40 min (%),[7],10%
same,Intrinsic clearance (L/min/mg),[8],38 µL/min/mg
same,% Remaining at 40 min (%),[8],45%
same,Percentage unbound (%),[9],2%
same,Percentage unbound (%),[10],14%
"Cc1nc(Nc2ncc(C(=O)Nc3c(Cl)cccc3Br)s2)cc(N2CCN(CCO)CC2)n1 [Compound B1, N-(2-bromo-6-chlorophenyl)-2-((6-(4-(2-hydroxyethyl)piperazin-l-yl)-2-methylpyrimidin-4-yl)amino)thiazole-5-carboxamide]",cytotoxicity in the presence of TNF (10 ng/mL) compared to inhibitor alone,[2],increased cytotoxicity
"Cc1nc(Nc2ncc(C(=O)Nc3c(Cl)csc3Cl)s2)cc(N2CCN(CCO)CC2)n1 [Compound D7, N-(2,4-dichlorothiophen-3-yl)-2-((6-(4-(2-hydroxyethyl)piperazin-1-yl)-2-methylpyrimidin-4-yl)amino)thiazole-5-carboxamide]",concentration at 2 h,[18],43 nM
same,concentration at 6 h,[18],5 nM
same,concentration at 12 h,[18],1.1 nM
same,IC50,[19],< 200 nM
same,IC50,[20],15 to 20 nM
"Cc1nc(Nc2ncc(C(=O)Nc3c(C)cncc3C)s2)cc(N2CCN(CCO)CC2)n1 [Compound C5, N-(3,5-dimethylpyridin-4-yl)-2-((6-(4-(2-hydroxyethyl)piperazin-1-yl)-2-methylpyrimidin-4-yl)amino)thiazole-5-carboxamide]",IC50,[1],< 1.5 nM
"Cc1nc(Nc2ncc(C(=O)Nc3c(C)csc3Cl)s2)cc(N2CCN(C)CC2)n1 [Compound D9, N-(2-chloro-4-methylthiophen-3-yl)-2-((2-methyl-6-(4-methylpiperazin-1-yl)pyrimidin-4-yl)amino)thiazole-5-carboxamide]",concentration at 2 h,[18],44 nM
same,concentration at 6 h,[18],8 nM
same,concentration at 12 h,[18],2.71 nM
same,IC50,[14],~60 nM
same,Inhibition of NFKB activity,[21],+
same,Inhibition of HDAC4 phosphorylation,[22],+
same,IC50,[19],< 100 nM
"CC(=O)N1CCN(c2cc(Nc3ncc(C(=O)Nc4c(C)csc4Cl)s3)nc(C)n2)CC1 [Compound D8, 2-((6-(4-acetylpiperazin-1-yl)-2-methylpyrimidin-4-yl)amino)-N-(2-chloro-4-methylthiophen-3-yl)thiazole-5-carboxamide]",IC50,[14],~150 nM
same,IC50,[19],> 200 nM
Cc1nc(Nc2ncc(C(=O)Nc3c(Cl)ccnc3C)s2)cc(N2CCN(C)CC2)n1 [Compound C10],IC50,[3],4.3 nM
same,IC50,[1],< 1.5 nM
same,IC50,[5],138 nM
same,IC50,[14],493 nM
"COc1c(F)cccc1NC(=O)c1cnc(Nc2cc(N3CCN(CCO)CC3)nc(C)n2)s1 [Compound B4, N-(3-fluoro-2-methoxyphenyl)-2-((6-(4-(2-hydroxyethyl)piperazin-l-yl)-2-methylpyrimidin-4-yl)amino)thiazole-5-carboxamide]",cytotoxicity in the presence of TNF (10 ng/mL) compared to inhibitor alone,[2],fails to exhibit cytotoxicity
"Cc1nc(Nc2ncc(C(=O)Nc3c(C)nn(C)c3C)s2)cc(N2CCN(CCO)CC2)n1 [Compound C8, 2-((6-(4-(2-hydroxyethyl)piperazin-1-yl)-2-methylpyrimidin-4-yl)amino)-N-(1,3,5-trimethyl-1H-pyrazol-4-yl)thiazole-5-carboxamide]",solubility kinetic,[6]; kinetic from dmso stock,128 to 195 µM
same,Intrinsic clearance (L/min/mg),[7],< 14 µL/min/mg
same,% Remaining at 40 min (%),[7],81%
same,Intrinsic clearance (L/min/mg),[8],< 14 µL/min/mg
same,% Remaining at 40 min (%),[8],86%
same,Percentage unbound (%),[9],5%
same,Percentage unbound (%),[10],62%
